According to PubChem BioAssay AID1996:
Values after ≈ are worked out from the molar mass of the structure shown.

Details: buffer; pH 7.4; 200.0 µM

Row | solubility kinetic | Structure (SMILES)
1 | 31.9 µg/mL (≈ 88.8 µM) | COc1ccc2oc(C(=O)OCC(=O)N3C(C)CCCC3C)c(C)c2c1 (stereo unspecified)
2 | 0.5 µg/mL (≈ 1.76 µM) | Cc1ccccc1CNc1ncnc2cc(Cl)ccc12
3 | 0.4 µg/mL (≈ 1.28 µM) | COc1ccc(C)cc1NC(=O)NCCCCc1ccccc1
4 | 10.6 µg/mL | Cl.Nc1cc(Cl)ccc1N1CCCC1
5 | 26 µg/mL (≈ 75.2 µM) | O=C(Nc1ccc(Cl)cc1)N1CCSC1=NCc1ccccc1
6 | > 38.7 µg/mL | O=C(Nc1ncccc1O)c1ccc2c(c1)OCO2
7 | 4.8 µg/mL (≈ 14.4 µM) | Cc1cc(C(=O)OCC(=O)NCc2cccs2)ccc1[N+](=O)[O-]
8 | > 61.6 µg/mL | CS(=O)(=O)c1ccc(Cl)c(NC(=O)CNC(=O)c2ccc3c(c2)OCO3)c1
9 | > 47.1 µg/mL | O=C(CCC(=O)Nc1ccc(F)cc1)N/N=C/c1cccnc1
10 | > 41.1 µg/mL | O=C(Cn1cnc([N+](=O)[O-])c1)NCCc1ccccc1
11 | 46.1 µg/mL (≈ 124 µM) | CC(C)(CC(=O)O)CC(=O)Nc1cc(C(F)(F)F)cc(C(F)(F)F)c1
12 | 1.2 µg/mL (≈ 3.82 µM) | CC1Oc2ccccc2N(CC(=O)Nc2ccccc2F)C1=O (stereo unspecified)
13 | 29.7 µg/mL (≈ 120 µM) | CN(C)C(=S)Nc1cccc(C(F)(F)F)c1
14 | 45.7 µg/mL (≈ 138 µM) | CCOC(=O)C1(CCOc2ccccc2)CCN(CC2CC2)CC1
15 | > 42.8 µg/mL | O=C(COc1ccccc1F)N1CCCc2ccccc21
16 | 17.7 µg/mL (≈ 53.6 µM) | Cc1c(Cc2ccccc2)sc(NC(=O)C(C)(C)C)c1C(N)=O
17 | > 57.4 µg/mL | O=C(COc1ccc(F)cc1Cl)N1CCN(C(=O)c2cccs2)CC1
18 | 8.5 µg/mL (≈ 35.7 µM) | c1ccc(-c2csc(-c3cccnc3)n2)cc1
19 | > 42.2 µg/mL | CC1CCCN(CC(=O)NC(=O)NC2CCCCC2)C1 (stereo unspecified)
20 | 11.4 µg/mL (≈ 37.1 µM) | O=C(c1cc2ccccc2o1)N1CCN(c2ccccn2)CC1
21 | > 53.4 µg/mL | O=C(CNC(=O)c1ccccc1F)OCC(=O)c1ccc(Cl)s1
22 | > 47.7 µg/mL | CC(NC(=O)c1ccco1)c1nc(-c2ccccc2Cl)no1 (stereo unspecified)
23 | 10.4 µg/mL (≈ 35.8 µM) | Cc1ccnc(NS(=O)(=O)c2ccc3c(c2)CCO3)c1

Row | solubility kinetic | Structure (SMILES)
24 | 5 µg/mL (≈ 14.7 µM) | Fc1ccc2[nH]c3c(c2c1)CN(C(=S)NCc1ccccc1)CC3
25 | 20.6 µg/mL (≈ 49 µM) | CC(NC(=O)COC(=O)C12CC3CC(CC(Br)(C3)C1)C2)c1ccccc1 (stereo unspecified)
26 | 53.7 µg/mL (≈ 145 µM) | CCSc1nc2sc3c(c2c(=O)n1-c1ccccc1C)CCN(C)C3
27 | 1 µg/mL (≈ 2.87 µM) | Cc1onc(-c2ccccc2Cl)c1C(=O)Nc1ccc(Cl)cn1
28 | 37.4 µg/mL (≈ 143 µM) | CCN(C(=O)COc1ccccc1)C1CCCCC1
29 | 43.1 µg/mL (≈ 113 µM) | CC1(C)CC(NC(=O)N2c3ccccc3Sc3ccccc32)CC(C)(C)N1
30 | 0.5 µg/mL (≈ 1.79 µM) | S=c1[nH]cnc2scc(-c3ccc(Cl)cc3)c12
31 | > 62.2 µg/mL | Cc1ccc(S(=O)(=O)Nc2ccc(F)c(S(=O)(=O)N3CCOCC3)c2)cc1
32 | < 0.3 µg/mL | O=[N+]([O-])c1ccc(/C=C/c2ccc3cccc(O)c3n2)cc1
33 | 53.7 µg/mL (≈ 146 µM) | CN(C(=O)CSc1cc(Cl)ccc1Cl)C1CCS(=O)(=O)C1 (stereo unspecified)
34 | > 41.1 µg/mL | Cc1cccc(N(Cc2ccccc2)C(=O)CCl)c1
35 | > 34.4 µg/mL | CC(CC(=O)Nc1ccccc1)n1ccnc1 (stereo unspecified)
36 | 45.7 µg/mL (≈ 135 µM) | CC1SC(C)C(=O)N(CC(=O)Nc2ccc([N+](=O)[O-])cc2)C1=O (stereo unspecified)
37 | 0.7 µg/mL (≈ 2.21 µM) | Cc1ccc(Nc2c(-c3ccccc3O)nc3ncccn23)cc1
38 | > 22.5 µg/mL | Cn1ncc2c(=O)[nH]cnc21
39 | 38.6 µg/mL (≈ 140 µM) | CCCCCc1ccc(CC(=O)N2CCOCC2)cc1
40 | > 53.2 µg/mL | CCOC(=O)C1CCCN(CCC(=O)Nc2ccccc2C)C1.Cl (stereo unspecified)
41 | > 66.1 µg/mL | O=C(COC(=O)c1cnccn1)Nc1cc(S(=O)(=O)N2CCOCC2)ccc1Cl
42 | 19.8 µg/mL (≈ 59.4 µM) | CC(C)[C@H](NC(=O)NC1CCN(Cc2ccccc2)CC1)C(=O)O
43 | 38.8 µg/mL (≈ 123 µM) | CCC(=O)Nc1cc(C(=O)O)ccc1Sc1ccc(C)cc1
44 | 5 µg/mL (≈ 12 µM) | CCN(CC)S(=O)(=O)c1ccc(NC(=O)c2ccc(N3CCCC3=O)cc2)cc1
45 | > 59.6 µg/mL | Cc1cc(Br)ccc1NC(=O)CNC(=O)CSc1nccn1C
46 | 34.2 µg/mL (≈ 104 µM) | CCn1c(=S)[nH]c2cc(S(=O)(=O)N3CCOCC3)ccc21

Row | solubility kinetic | Structure (SMILES)
47 | > 47.1 µg/mL | C=CCNC(=O)C12CCC(C)(C(=O)[C@H]1Br)C2(C)C (stereo partly specified)
48 | > 42.4 µg/mL | CCCN(CC(=O)Nc1ccccc1C)C(=O)CCl
49 | 21.8 µg/mL (≈ 94.3 µM) | N#Cc1ccc(C(=O)NC2=NCCS2)cc1
50 | 2.6 µg/mL (≈ 6.06 µM) | Cc1ccc(C(=O)N2CCN(CCNC(=O)C(=O)Nc3ccc(Cl)cc3)CC2)cc1
51 | > 51.2 µg/mL | Cc1cccc(OCC(=O)NCCCNC(=O)c2ccc(C)nc2)c1
52 | > 59.5 µg/mL | COc1ccc(C(=O)NCC2CCCCC2)cc1S(=O)(=O)N1CCOCC1
53 | > 39.8 µg/mL | CCOC(=O)C(=O)Nc1ccccc1C(=O)OCC
54 | 55.3 µg/mL (≈ 148 µM) | O=C(CN1C(=O)CCS(=O)(=O)c2ccccc21)NCCc1ccccc1
55 | 46 µg/mL (≈ 129 µM) | CCC(C(=O)OCC(=O)NCc1ccc2c(c1)OCO2)c1ccccc1 (stereo unspecified)
56 | > 35.1 µg/mL | CCC1SC(=Nc2cccc(C)c2)NC1=O (stereo unspecified)
57 | > 35.4 µg/mL | O=C(Nc1cccc(F)c1)N1CCCCCC1
58 | 51.9 µg/mL (≈ 143 µM) | COc1ccc(S(=O)(=O)NC(C)C(=O)NCc2ccncc2)cc1C (stereo unspecified)
59 | 39 µg/mL (≈ 116 µM) | O=C(OCC(=O)N1CCCC1)c1c(Cl)ccc(Cl)c1Cl
60 | 41.7 µg/mL (≈ 138 µM) | COCC(=O)Nc1ccc2nc3n(c(=O)c2c1)CCCCC3
61 | > 36.9 µg/mL | O=C(O)c1cc(=O)n(Cc2ccccc2)c(=O)[nH]1
62 | 0.6 µg/mL (≈ 1.88 µM) | Cc1ccc(NC(=O)c2cc(CC(C)C)nc3ccccc23)cc1
63 | 8.3 µg/mL (≈ 24.9 µM) | CN(C)c1nc(/C=C(\C#N)C(N)=O)c(Cl)n1-c1ccc(F)cc1
64 | 2.8 µg/mL (≈ 8.42 µM) | CCOc1ccc(C(C)NC(=S)NCc2ccc(F)cc2)cc1 (stereo unspecified)
65 | 33.2 µg/mL (≈ 140 µM) | CCc1ccccc1Nc1nc2ccccc2[nH]1
66 | 5.8 µg/mL (≈ 17.7 µM) | Cc1cccc(-c2nc(Nc3ccc(O)cc3)c3ccccc3n2)c1
67 | 8.3 µg/mL (≈ 32.3 µM) | CCCOc1nc2ccccc2cc1/C=C/C(=O)O
68 | > 49 µg/mL | Cc1nn(C(=O)N(C)C)c(C)c1CN1C(=O)c2ccccc2C1=O
69 | > 36 µg/mL | O=c1[nH]cnc2ncc(-c3ccc(O)cc3)nc12

Row | solubility kinetic | Structure (SMILES)
70 | 46.7 µg/mL (≈ 128 µM) | Cc1cn(CCC(=O)Nc2ccc(N3CCOCC3)cc2)c2ccccc12
71 | 46.2 µg/mL (≈ 124 µM) | O=C(OCC(=O)N1CCC(Cc2ccccc2)CC1)c1cccnc1Cl
72 | 2.1 µg/mL (≈ 7.49 µM) | CC(=O)Nc1nccc(-c2cc(-c3ccccc3)no2)n1
73 | > 57.1 µg/mL | CCC(=O)c1ccc(OCC(=O)NC2CCN(Cc3ccccc3)CC2)cc1
74 | 32.9 µg/mL (≈ 74.2 µM) | COc1ccccc1CNC(=O)CN1C(=O)NC(Cc2ccccc2)(c2ccccc2)C1=O (stereo unspecified)
75 | 36.7 µg/mL (≈ 125 µM) | CCOC(=O)N1CCc2c(sc3ncn(C)c(=O)c23)C1
76 | 2.3 µg/mL (≈ 6.76 µM) | O=S(=O)(c1ccc(F)c(F)c1)N1CCN(c2ncccn2)CC1
77 | 3.2 µg/mL (≈ 6.78 µM) | CCN(c1ccccc1)S(=O)(=O)c1ccc(Cl)c(NC(=O)CNC(C)c2ccccc2)c1 (stereo unspecified)
78 | > 54.5 µg/mL | CC1(C)CC(NC2C3CC4CC(C3)CC2C4)CC(C)(C)N1.Cl (stereo unspecified)
79 | < 0.4 µg/mL | CCC(=O)c1c[nH]c(C(=O)NCc2cccc(C(F)(F)F)c2)c1
80 | 42.8 µg/mL (≈ 137 µM) | COc1ccc(/C=C(\C#N)C(=O)ONC2=NCCCCC2)cc1
81 | 38.4 µg/mL (≈ 131 µM) | NC(=O)c1ccc(N2CCC(C(N)=O)CC2)c([N+](=O)[O-])c1
82 | > 62.1 µg/mL | CCN1C(=O)C(=O)N(CC(=O)N(C)CC(=O)Nc2ccccc2C(F)(F)F)C1=O
83 | 7.5 µg/mL (≈ 24.2 µM) | CCC1CN(C(=O)Nc2cccc(C)c2)c2cc(C)ccc2O1 (stereo unspecified)
84 | 41.5 µg/mL (≈ 108 µM) | Cc1cc(N2CCOCC2)nc2ccc(NC(=S)N3CCCCC3C)cc12 (stereo unspecified)
85 | 3.5 µg/mL (≈ 11.4 µM) | CSc1ncccc1C(=O)OCC(=O)c1ccc(C)s1
86 | < 0.3 µg/mL | O=C(Nc1ccc2ccccc2c1)c1cccc([N+](=O)[O-])c1
87 | 34.4 µg/mL (≈ 125 µM) | Cc1nc(N2CCOCC2)c2c3c(sc2n1)CCC3
88 | 20 µg/mL (≈ 60.1 µM) | Oc1ccccc1C(=S)N1CCN(c2cccc(Cl)c2)CC1
89 | < 0.3 µg/mL | Cc1ccc(-c2csc(-c3cc(C)on3)n2)cc1
90 | > 39.4 µg/mL | Cl.Nc1nc(N)c2[nH]c(-c3ccccc3)nc2n1
91 | > 38.9 µg/mL | C=CCNC(=O)c1cc2cccc(OC)c2oc1=O
92 | > 42 µg/mL | Cc1ccccc1-c1noc(-c2ccccc2C(=O)O)n1

Row | solubility kinetic | Structure (SMILES)
93 | 28.8 µg/mL (≈ 91.9 µM) | N#CCCN(Cc1ccccc1)C(=S)Nc1ccc(F)cc1
94 | 1.2 µg/mL (≈ 3.55 µM) | COc1ccc(NC(=O)c2ccc(-c3ccc([N+](=O)[O-])cc3)o2)cc1
95 | > 47.5 µg/mL | O=C(O)CCCc1c(-[n+]2ccccc2)[nH]c2ccccc12.[Cl-]
96 | > 66.7 µg/mL | O=C(O)c1ccc(Cl)c(S(=O)(=O)Nc2ccc(S(=O)(=O)N3CCCC3)cc2)c1
97 | > 44.4 µg/mL | CCOC(=O)C1CCCN(C(=O)c2ccc(Cl)cc2)C1 (stereo unspecified)
98 | 3.8 µg/mL (≈ 14 µM) | COc1ccc(NC(=O)c2ccc3c(c2)OCO3)cc1
99 | 2.8 µg/mL (≈ 8.63 µM) | Cc1cc(C)cc(NC(=O)CN2CCN(c3ccccn3)CC2)c1
100 | > 32.9 µg/mL | Cc1nc(-c2cccs2)ccc1C(=O)O
101 | > 43.3 µg/mL | Cc1cc(C)cc(C(=O)NC2CC(C)(C)NC(C)(C)C2)c1
102 | 16 µg/mL (≈ 37.4 µM) | COc1ccc(-c2csc(NC(=O)CN3C(=O)C4CC=CCC4C3=O)n2)cc1OC (stereo unspecified)
103 | > 71.6 µg/mL | CC(=O)Nc1ccc(NC(=O)C(C)OC(=O)CC23CC4CC(CC(Br)(C4)C2)C3)cc1 (stereo unspecified)
104 | > 47.3 µg/mL | COc1ccc(C(=O)NCc2ccc3c(c2)OCO3)c(OC)c1
105 | 6.2 µg/mL (≈ 20.6 µM) | COc1ccc([C@@H]2Sc3ccccc3NC(=O)[C@@H]2O)cc1
106 | 16 µg/mL (≈ 58.1 µM) | COc1ccc(NC(=O)C2CC2)cc1OC1CCCC1
107 | > 46.6 µg/mL | Cc1ccc(N(CC(=O)N2CCCC2)S(C)(=O)=O)c(C)c1
108 | 29.2 µg/mL (≈ 96.3 µM) | COc1ccc(N2C(=O)CSC2c2cccc(F)c2)cc1 (stereo unspecified)
109 | 7.9 µg/mL (≈ 16.5 µM) | CC(C)[C@H](NC(=O)c1ccc(C(C)(C)C)cc1)C(=O)N1CCN(Cc2ccc3c(c2)OCO3)CC1
110 | > 41.6 µg/mL | Cc1ccc(NC(=O)c2ccc3nccnc3c2)c(C)c1
111 | 43.3 µg/mL (≈ 149 µM) | O=C(NCCO)/C(=C/c1ccco1)NC(=O)c1ccco1
112 | 4.2 µg/mL (≈ 12.4 µM) | Cc1cccc(C(=O)OCC(=O)N2CC(=O)Nc3ccccc32)c1C
113 | > 39.5 µg/mL | COc1ccc(NC(=O)C2CCOC(C)(C)C2)cc1 (stereo unspecified)
114 | 0.6 µg/mL (≈ 1.95 µM) | O=c1[nH]cnc2cc(-c3ccc(Br)cc3)sc12
115 | > 31.7 µg/mL | Cc1ccc(S(=O)(=O)NC2CC2)cc1

Row | Structure (SMILES) | solubility kinetic
116 | O=C(Nc1cccc(Cl)c1)N1C[C@H]2C[C@@H](C1)c1cccc(=O)n1C2 | > 51.6 µg/mL
